Measurements reported in patent publication US6030823A, “D-aminoacylase” (Daicel Chemical Industries, Ltd., priority 1998, dated 2000).

Test system: D-aminoacylase derived from Sebekia benihana IFO14309
Test: Substrate specificity of the aminoacylase
Type: biochemical
Conditions: 20 mM substrate, 50 mM Tris-HCl pH 7.5, 30° C., 5 min
Method: The substrate specificity of the aminoacylase was examined using N-acetyl-D-methionine, N-acetyl-D-alanine, N-acetyl-D-aspartic acid, N-acetyl-D-leucine, N-acetyl-D-phenylalanine, N-acetyl-D-tryptophan, N-acetyl-D-valine, N-acetyl-L-leucine, N-acetyl-L-methionine, and N-acetyl-L-valine as substrates. The enzyme activity was assayed as follows. A 0.050-ml aliquot of an enzyme solution was added to 0.950 ml of 20 mM N-acetyl-D(or L)-amino acid in 50 mM Tris-HCl buffer (pH 7.5) and incubated at 30° C. for 5 min. The reaction was then stopped by adding 0.50 ml of a TCA solution to the reaction mixture. The relative activity is shown in Table 5, taking the activity for N-acetyl-L-methionine as 100%.

| SMILES | Relative activity |
| --- | --- |
| CC(=O)N[C@H](Cc1c[nH]c2ccccc12)C(=O)O [N-Ac-D-Trp, N-acetyl-D-tryptophan] | 64% |
| CC(=O)N[C@@H](CC(C)C)C(=O)O [N-Ac-L-Leu, N-acetyl-L-leucine] | 0% |
| CC(=O)N[C@H](C(=O)O)C(C)C [N-Ac-L-Val, N-acetyl-L-valine] | 0% |
| CSCC[C@@H](NC(C)=O)C(=O)O [N-Ac-D-Met, N-acetyl-D-methionine] | 100% |
| CSCC[C@H](NC(C)=O)C(=O)O [N-Ac-L-Met, N-acetyl-L-methionine] | 0% |
| CC(=O)N[C@@H](C(=O)O)C(C)C [N-Ac-D-Val, N-acetyl-D-valine] | 33% |
